From PubChem BioAssay (NCI)
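Five compound concentrations were applied to cells in 96-well plates for 48 hours; endpoints were derived by simple linear interpolation of the resulting dose-response curve. TGI: concentration producing complete growth inhibition.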

Legend:
Test in all cases: inhibition of tumour cell growth, NCI panel, 48 h
MCF7 breast = system: MCF7 breast
NCI-H522 lung = system: NCI-H522 lung
MOLT-4 leukemia = system: MOLT-4 leukemia
UACC-62 melanoma = system: UACC-62 melanoma
HL-60(TB) leukemia = system: HL-60(TB) leukemia
SF-539 CNS = system: SF-539 CNS
UACC-257 melanoma = system: UACC-257 melanoma
TK-10 renal = system: TK-10 renal
NCI-H460 lung = system: NCI-H460 lung
SNB-75 CNS = system: SNB-75 CNS
KM12 colon = system: KM12 colon
786-0 renal = system: 786-0 renal
K-562 leukemia = system: K-562 leukemia
SK-MEL-5 melanoma = system: SK-MEL-5 melanoma
SNB-19 CNS = system: SNB-19 CNS
RPMI-8226 leukemia = system: RPMI-8226 leukemia
T-47D breast = system: T-47D breast
IGROV1 ovarian = system: IGROV1 ovarian
UO-31 renal = system: UO-31 renal
CAKI-1 renal = system: CAKI-1 renal
HCT-116 colon = system: HCT-116 colon
A549 NSCLC = system: A549 NSCLC
SK-OV-3 ovarian = system: SK-OV-3 ovarian
NCI-H23 lung = system: NCI-H23 lung
MALME-3M melanoma = system: MALME-3M melanoma
U251 CNS = system: U251 CNS
HT29 colon = system: HT29 colon
M14 melanoma = system: M14 melanoma
MDA-N = system: MDA-N
NCI-H226 lung = system: NCI-H226 lung
OVCAR-3 ovarian = system: OVCAR-3 ovarian
MDA-MB-231 breast = system: MDA-MB-231 breast
OVCAR-8 ovarian = system: OVCAR-8 ovarian
NCI/ADR-RES ovarian = system: NCI/ADR-RES ovarian
SK-MEL-28 melanoma = system: SK-MEL-28 melanoma
HCC-2998 colon = system: HCC-2998 colon
OVCAR-4 ovarian = system: OVCAR-4 ovarian
PC-3 prostate = system: PC-3 prostate
A498 renal = system: A498 renal
SR leukemia = system: SR leukemia
DU-145 prostate = system: DU-145 prostate
SN12C renal = system: SN12C renal
SW-620 colon = system: SW-620 colon
EKVX NSCLC = system: EKVX NSCLC
SF-268 CNS = system: SF-268 CNS
BT-549 breast = system: BT-549 breast
OVCAR-5 ovarian = system: OVCAR-5 ovarian
COLO 205 colon = system: COLO 205 colon
HCT-15 colon = system: HCT-15 colon
LOX IMVI melanoma = system: LOX IMVI melanoma
CCRF-CEM leukemia = system: CCRF-CEM leukemia
MDA-MB-435 = system: MDA-MB-435
RXF 393 renal = system: RXF 393 renal
HS 578T breast = system: HS 578T breast
SK-MEL-2 melanoma = system: SK-MEL-2 melanoma
HOP-62 NSCLC = system: HOP-62 NSCLC
ACHN renal = system: ACHN renal
HOP-92 NSCLC = system: HOP-92 NSCLC
SF-295 CNS = system: SF-295 CNS

Question: For `COC(=O)NNC(c1ccc(Cl)cc1)c1ccc(Cl)cc1`, which TGI (MCF7 breast) is on record?
Answer: 75.6 µM

Question: What about the TGI (NCI-H522 lung) of the same compound?
Answer: 38.7 µM

Question: And the TGI (MOLT-4 leukemia)?
Answer: 55.9 µM

Question: And the TGI (UACC-62 melanoma)?
Answer: 30.9 µM

Question: And the TGI (HL-60(TB) leukemia)?
Answer: 64.4 µM

Question: And the TGI (SF-539 CNS)?
Answer: 39 µM

Question: What about the TGI (UACC-257 melanoma) of the same compound?
Answer: 39 µM

Question: What about the TGI (TK-10 renal) of the same compound?
Answer: 33.6 µM

Question: And the TGI (NCI-H460 lung)?
Answer: 35.2 µM

Question: And the TGI (SNB-75 CNS)?
Answer: 69 µM

Question: What about the TGI (KM12 colon) of the same compound?
Answer: 37 µM

Question: What about the TGI (786-0 renal) of the same compound?
Answer: 35 µM

Question: What about the TGI (K-562 leukemia) of the same compound?
Answer: 53 µM

Question: What about the TGI (SK-MEL-5 melanoma) of the same compound?
Answer: 31.2 µM

Question: What about the TGI (SNB-19 CNS) of the same compound?
Answer: 41.1 µM

Question: And the TGI (RPMI-8226 leukemia)?
Answer: 52 µM

Question: And the TGI (T-47D breast)?
Answer: 68.2 µM

Question: What about the TGI (IGROV1 ovarian) of the same compound?
Answer: 34 µM

Question: What about the TGI (UO-31 renal) of the same compound?
Answer: 25.2 µM

Question: And the TGI (CAKI-1 renal)?
Answer: 35.7 µM

Question: What about the TGI (HCT-116 colon) of the same compound?
Answer: 30.3 µM

Question: And the TGI (A549 NSCLC)?
Answer: 32.8 µM

Question: And the TGI (SK-OV-3 ovarian)?
Answer: 58.6 µM

Question: And the TGI (NCI-H23 lung)?
Answer: 34.6 µM

Question: What about the TGI (MALME-3M melanoma) of the same compound?
Answer: 43.8 µM

Question: And the TGI (U251 CNS)?
Answer: 40.3 µM

Question: What about the TGI (HT29 colon) of the same compound?
Answer: 34.2 µM

Question: And the TGI (M14 melanoma)?
Answer: 31.9 µM

Question: And the TGI (MDA-N)?
Answer: 45.6 µM

Question: And the TGI (NCI-H226 lung)?
Answer: 35.3 µM

Question: What about the TGI (OVCAR-3 ovarian) of the same compound?
Answer: 31.9 µM

Question: And the TGI (MDA-MB-231 breast)?
Answer: 25.8 µM

Question: What about the TGI (OVCAR-8 ovarian) of the same compound?
Answer: 42.4 µM

Question: And the TGI (NCI/ADR-RES ovarian)?
Answer: 39.8 µM

Question: And the TGI (SK-MEL-28 melanoma)?
Answer: 43 µM

Question: And the TGI (HCC-2998 colon)?
Answer: 27.6 µM

Question: What about the TGI (OVCAR-4 ovarian) of the same compound?
Answer: 55.3 µM

Question: What about the TGI (PC-3 prostate) of the same compound?
Answer: 30.5 µM

Question: And the TGI (A498 renal)?
Answer: 34.9 µM

Question: What about the TGI (SR leukemia) of the same compound?
Answer: 54.8 µM

Question: And the TGI (DU-145 prostate)?
Answer: > 100 µM

Question: And the TGI (SN12C renal)?
Answer: 35.2 µM

Question: What about the TGI (SW-620 colon) of the same compound?
Answer: 70 µM

Question: What about the TGI (EKVX NSCLC) of the same compound?
Answer: 40 µM

Question: What about the TGI (SF-268 CNS) of the same compound?
Answer: 49 µM

Question: What about the TGI (BT-549 breast) of the same compound?
Answer: 32.4 µM

Question: What about the TGI (OVCAR-5 ovarian) of the same compound?
Answer: 40.3 µM

Question: And the TGI (COLO 205 colon)?
Answer: 38 µM

Question: What about the TGI (HCT-15 colon) of the same compound?
Answer: 31.1 µM

Question: What about the TGI (LOX IMVI melanoma) of the same compound?
Answer: 32 µM

Question: And the TGI (CCRF-CEM leukemia)?
Answer: 54.1 µM

Question: And the TGI (MDA-MB-435)?
Answer: > 100 µM

Question: What about the TGI (RXF 393 renal) of the same compound?
Answer: 23.7 µM

Question: And the TGI (HS 578T breast)?
Answer: 48.1 µM

Question: And the TGI (SK-MEL-2 melanoma)?
Answer: 26.6 µM

Question: Which results are given for `NC(Cc1c[nH]c2cc([N+](=O)[O-])ccc12)C(=O)O` (stereo unspecified)?
Answer: TGI (MCF7 breast): > 100 µM; TGI (HOP-62 NSCLC): > 100 µM; TGI (NCI-H522 lung): > 100 µM; TGI (MOLT-4 leukemia): > 100 µM; TGI (UACC-62 melanoma): > 100 µM; TGI (SF-539 CNS): > 100 µM; TGI (ACHN renal): > 100 µM; TGI (HOP-92 NSCLC): > 100 µM; TGI (UACC-257 melanoma): > 100 µM; TGI (TK-10 renal): > 100 µM; TGI (NCI-H460 lung): > 100 µM; TGI (SNB-75 CNS): > 100 µM; TGI (KM12 colon): > 100 µM; TGI (786-0 renal): > 100 µM; TGI (K-562 leukemia): > 100 µM; TGI (SK-MEL-5 melanoma): > 100 µM; TGI (SNB-19 CNS): > 100 µM; TGI (RPMI-8226 leukemia): > 100 µM; TGI (T-47D breast): > 100 µM; TGI (IGROV1 ovarian): > 100 µM; TGI (UO-31 renal): > 100 µM; TGI (CAKI-1 renal): > 100 µM; TGI (SF-295 CNS): > 100 µM; TGI (HCT-116 colon): > 100 µM; TGI (A549 NSCLC): > 100 µM; TGI (SK-OV-3 ovarian): > 100 µM; TGI (NCI-H23 lung): > 100 µM; TGI (MALME-3M melanoma): > 100 µM; TGI (U251 CNS): > 100 µM; TGI (HT29 colon): > 100 µM; TGI (M14 melanoma): > 100 µM; TGI (MDA-N): > 100 µM; TGI (NCI-H226 lung): > 100 µM; TGI (OVCAR-3 ovarian): > 100 µM; TGI (MDA-MB-231 breast): > 100 µM; TGI (OVCAR-8 ovarian): > 100 µM; TGI (NCI/ADR-RES ovarian): > 100 µM; TGI (SK-MEL-28 melanoma): > 100 µM; TGI (OVCAR-4 ovarian): > 100 µM; TGI (PC-3 prostate): > 100 µM; TGI (A498 renal): > 100 µM; TGI (SR leukemia): > 100 µM; TGI (DU-145 prostate): > 100 µM; TGI (SN12C renal): > 100 µM; TGI (SW-620 colon): > 100 µM; TGI (EKVX NSCLC): > 100 µM; TGI (SF-268 CNS): > 100 µM; TGI (BT-549 breast): > 100 µM; TGI (OVCAR-5 ovarian): > 100 µM; TGI (COLO 205 colon): > 100 µM; TGI (HCT-15 colon): > 100 µM; TGI (LOX IMVI melanoma): > 100 µM; TGI (MDA-MB-435): > 100 µM; TGI (RXF 393 renal): > 100 µM; TGI (HS 578T breast): > 100 µM; TGI (SK-MEL-2 melanoma): > 100 µM
